Results as given in patent EP2408450B1, “ALPHA-(N-SULFONAMIDO)ACETAMIDE COMPOUND AS AN INHIBITOR OF BETA AMYLOID PEPTIDE PRODUCTION” (Bristol-Myers Squibb Company, priority 2009, dated 2010).

Experiments:
CYP3A4 mRNA = conditions: human, 3 days, 20 µM
Experimental: [[2-fluoro-4-(1,2,4-oxadiazol-3-yl)phenyl]methyl]amino]-5,5,5-trifluoropentanamide to induce CYP3A4 mRNA was evaluated in vitro using the Fa2N-4 cell line. The Fa2N-4 cell is an immortalized human hepatocyte line that was created using the Simian virus 40 (SV40) T antigen as the immortalizing gene, while retaining basal expression and inducibility of several CYP isoforms, including CYP3A4. Fa2N-4 cells and MFE Support Media F were provided by XenoTech, LLC (Lenexa, Kansas).
Upon the receipt of the cells, the media were changed and the cells maintained overnight in a humidified, CO2-supplied incubator. After this adaptation period, the cells were examined under a light microscope and a determination was made as to whether the cells were morphologically normal and suitable for use. During the treatment period, the cells were visually inspected on a daily basis; cellular morphology, confluency, and signs of toxicity due to the test article were documented as necessary. […] Rifampicin (10 µM), a prototypical CYP3A4 inducer, was used as the positive control. Fa2N-4 cells were exposed to the test articles for a total of 3 days. The culture medium was replaced daily with fresh medium containing the test articles. After a total of ~72 hours of exposure, medium was aspirated and the cells washed once with warm phosphate buffered saline solution before adding the cell lysis buffer (Qiagen, Valencia, CA).

[1] = tested on: γ-secretase inhibitor binding sites in the brain; test: Gamma-secretase site occupancy in rat brain sections; assay type: in vivo
Experimental: Female Harlan Sprague-Dawley rats (∼200 - 250 g) were dosed daily by oral gavage with a dosing vehicle of 99% PEG-400, 1% Tween-80 at 4 mL/kg in the morning. […] All procedures were done in concordance with ACUC guidelines. […] Plasma was obtained after centrifugation. […] CSF samples were centrifuged to remove cells or debris prior to dilution at 1:2 in 4% BSA and frozen for subsequent analysis.
Brain sections were cut coronally at a thickness of 20 µm on a cryostat and thaw-mounted onto Superfrost Plus slides. Sections were saved at the level of the rostral hippocampus, with 3 sections per slide at intervals of about 120 µm, and frozen at -20°C until use. For occupancy studies, brain sections were warmed to room temperature, dried, incubated for 10 minutes in 50 mM HEPES buffer, pH 7.4, then transferred to the same buffer containing 1.5 nM [^3H]IN973 (Goldstein, M.E. et al., J. Pharmacol. Exp. Ther., 323:102-108 (2007)) or [^3H] (R)-4-((N-(1-amino-4-methyl-1-oxopentan-2-yl)-4-chlorophenylsulfonamido)methyl)-N-(2-methoxyethyl)benzamide and incubated at room temperature for 10 minutes. To define nonspecific binding, adjacent sections were incubated in buffer containing [^3H]IN973 or [^3H] (R)-4-((N-(1-amino-4-methyl-1-oxopentan-2-yl)-4-chlorophenylsulfonamido)methyl)-N-(2-methoxyethyl)benzamide, but including unlabeled γ-secretase inhibitor at 0.5 µM. After the incubation, the slides were washed three times for 2 minutes each in ice-cold PBS, pH 7.2, dipped in ice-cold distilled water, and dried with a fan blowing cool air. The slides were placed under tritium-sensitive phosphor storage screens (Amersham Biosciences, Arlington Heights, IL) and exposed in the dark for 7 days. Images were acquired from the phosphor storage screens using a Cyclone phosphor scanner (Packard, Meriden, CT) and OptiQuant acquisition and analysis software (Packard). Optical densities (expressed as digital light units per square millimeter) over areas of interest were measured and expressed as a percent of vehicle control.

## NC(=O)[C@@H](CCC(F)(F)F)N(Cc1ccc(-c2ncon2)cc1F)S(=O)(=O)c1ccc(Cl)cc1 [(2R)-2-[[(4-chlorophenyl)sulfonyl][[2-fluoro-4-(1,2,4-oxadiazol-3-yl)phenyl]methyl]amino]-5,5,5-trifluoropentanamide]
CYP3A4 mRNA
  magnitude of induction as % of the induction response caused by rifampicin: 22%
[1]; single dose 1 mg/kg, by 24 hours
  site occupancy: gradually returned to baseline values
[1]; single dose 1 mg/kg, two hours after dose
  brain γ-secretase binding sites occupied: 75%
[1]; single dose 10 mg/kg, 24 hr timepoint
  γ-secretase inhibitor binding sites in the brain occupied: 88%
[1]; single dose 10 mg/kg, all but the 24 hr timepoint
  γ-secretase inhibitor binding sites in the brain occupied: greater than 94%
[1]; single dose 100 mg/kg, throughout the dosing interval
  γ-secretase inhibitor binding sites in the brain occupied: greater than 94%
